From patent US20040092532A1, “Use of p38 inhibitors for the treatment of smoke inhalation” (priority 2003, published 2004)

How the values were obtained:
[1] = test system: LTD4-induced hypertussive response and airway eosinophilia; test: LTD4-Induced Hypertussive Model (citric acid challenge); type: in vivo, guinea pigs; conditions: oral 30 mg/kg b.i.d., inhaled LTD4 10 ug/ml for 1 minute, 72 hours after exposure
Protocol: The effects of the compound are then assessed on the hypertussive response that occurs 72 hours post aerosol exposure to antigen or LTD4 exposure. Treatment of the animals occurs with the drug prior and/or after antigen or LTD4 challenge, but not on the day of citric acid challenge. […] Similarly, inhalation of LTD4 (10 ug/ml for 1 minute) increased cough incidence and airway esoinophiles 72 hours after exposure.

[2] = test system: antigen-induced hypertussive response to citric acid; test: Antigen-Induced Hypertussive Model (ovalbumin, citric acid challenge); type: in vivo; conditions: sensitized guinea pigs exposed to inhaled ovalbumin
Protocol: The effects of the compound are then assessed on the hypertussive response that occurs 72 hours post aerosol exposure to antigen or LTD4 exposure. Treatment of the animals occurs with the drug prior and/or after antigen or LTD4 challenge, but not on the day of citric acid challenge. Inhalation of citric acid (CA; 0.4% for 1 minute) induced 11 to 15 coughs, during the exposure and 12-minute monitoring period in conscious guinea pigs.

[3] = test system: citric acid-induced cough; test: Citric Acid Induced Cough Model (direct antitussive activity); type: in vivo; conditions: inhaled citric acid-induced cough, conscious guinea pigs; FIG. 4
Protocol: The directed antitussive activity of the compound in question if first assessed, by a 10 to 30 minute pretreatment period by intraperitoneal injection or a 1 hour pretreatment period for oral administration. The animals (guinea pigs) are then subjected to an inhaled citric acid-induced cough challenge. Inhalation of citric acid (CA; 0.4% for 1 minute) induced 11 to 15 coughs, during the exposure and 12-minute monitoring period in conscious guinea pigs.

Structure (SMILES): COc1nccc(-c2c(-c3ccc(F)cc3)ncn2[C@H]2CC[C@H](O)CC2)n1 [Compound I, trans-1-(4-Hydroxycyclohexyl)-4-(4-fluorophenyl)-5-[(2methoxy)pyrimidin-4-yl]imidazole]
- LTD4-induced eosinophilia [1]: blocked the LTD4-induced esoinophilia
- cough response after LTD4 ([1]; FIG. 5): normalized the cough response
- airway eosinophilia ([2]; bronchoalveolar lavage): reduce airway eosinophilia
- hypertussive state (CA-induced cough incidence) ([2]; citric acid challenge): normalizes the hypertussive state
- direct antitussive effect [3]: no direct antitussive effect
